Measurements reported in patent publication US4226885A, “Guanylhydrazones and medicaments containing them” (Choay S.A., priority 1977, dated 1980).
Read-outs that look alike come from different tables or passages of the source.

How the values were obtained:
[1] = system: Lipidium sativum; assay: Inhibition of the growth of the root meristem of Lipidium sativum (vegetable cells); type: in vivo; conditions: for inhibiting activity (root growth, in words): Lipidium sativum test
Method: The test of the inhibition of the growth of the root meristem of Lipidium sativum was used, which test is used to evaluate the cytostatic action of series of drugs. It consists in placing germinated grains of Lipidium sativum in 15 ml. of aqueous solution containing 1% of methyl cellulose, in which the guanyl hydrazones are placed in suspension.
After leaving in darkness for 24 hours at the temperature of 27° C., the elongation of the root in comparison with that of a control batch (Li Lipidium sativum grain in methyl cellulose medium) is determined.
The validity of the linear model was evaluated with the aid of test F: [formula]
In the example supplied, for the calculation of the confidence interval for α=0.05, one finds:
that is to say one has five chances per hundred, if one repeats another series of measurements, of finding a pI 50 outside this limit.

[2] = mouse; cited from earlier work
[3] = system: fibro-sarcomas induced by methyl cholanthrene, tumour cells in culture; assay: Tumour culture: inhibition of multiplication of methyl cholanthrene-induced fibro-sarcoma cells in vitro; type: cell-based; conditions: Rattus norvegicus, read-out: percentage of inhibition in comparison with the control; heading: percentage of inhibition in comparison with the control; B3 tumour culture, 10^-3 M
[4] = system: fibro-sarcomas induced by methyl cholanthrene, tumour cells in culture; assay: as above; type: cell-based; conditions: Rattus norvegicus; for inhibition at 10 µM: 10^-5 molar; for inhibition at 1 µM: 10^-6 molar
Method: (§1) A supplementary study of the activity of these products upon the inhibition of growth of animal cells was effected by tumour culture. On fibro-sarcomas induced by methyl cholanthrene (O. Flandre et coll. C.R. Jour. biol. 1966. 160 152) the products were tested: upon tumour cells in culture "in vitro" and upon treated rats.
1. upon tumour cells in culture "in vitro" the results of the tested products are reported in Table IV below, which expresses the cellular count at the 72nd hour after sub-culture, in the presence of the substances to be studied.
The results are expressed in percentage of diminution of the number of cells in comparison with the control.
The determinations were effected with the products at three molar concentrations: 10^-4, 10^-5 and 10^-6.
This concerns fibro-sarcomas induced by methyl cholanthrene according to a technique described by O. FLANDRE, I. CIURANA, J. SECCHI and M. DAMON: Reports of the Sittings of the Biology Society, Volume 160, No. 1, 1966, page 152.
The products can be tested either upon tumour cells cultivated in vitro, or upon the rat treated by tumour cell injections either in situ or by intraperitoneal injection.
The preliminary experiments carried out with the substances according to the invention, tested on tumour cells cultivated in vitro, disclose a retardation of the cellular multiplication.

[5] = system: platelet aggregation; assay: Platelet anti-aggregant action (BORN's method); type: cell-based, human or rabbit
Method: The determination of the platelet aggregability was effected according to BORN's method, using a LABINTEC aggregometer.
Firstly a platelet-rich plasma (or PRP) and next a platelet-poor plasma (or PPP or PDP) are prepared from human blood or rabbit's blood, and the apparatus is calibrated.
Then the aggregating power of the plasma (PRP) is determined in relation to the PDP in the presence and in the absence of guanyl hydrazone. Thus it is possible to determine the percentage of inhibition of platelet aggregation as a function of the concentration. The curves obtained permit of determining a pI 50. […]

[6] = target: rat liver monoaminoxydase; assay: I.M.A.O. activity: inhibition of rat liver monoaminoxydase (spectrophotometric, kynuramine as substratum); type: biochemical; conditions: 50% inhibition
Method: The inhibiting activity of the envisaged guanyl hydrazones in relation to rat liver monoaminoxydase was determined by means of a spectrophotometric method, using kynuramine as substratum.
The I.M.A.O. activity was determined for various concentrations of guanyl hydrazone. The concentrations for which one obtains 50% inhibition relate to the pI 50, which is calculated as follows: […]
For each concentration about ten experiments are carried out, from which the mean activity Yi is determined. Only concentrations giving a Yi between 15 and 85% of activity are retained.
Assume N concentrations Ci retained; to each Ci there correspond a certain number ni of experiments and a mean activity Yi.
Assume in all NT=Σni experiments.
(a) The equation of the straight line Yi =f (Ci) is calculated by the method of least squares.
To this straight line there are attached different statistic tests to express its validity, as straight line only.
Then the corresponding concentration is deduced for Y=50%.
(b) Statistical calculations permit evaluation of the legitimacy of the linear model. These calculations take account of all the points, that is to say NT experiments, whereas the straight line is determined from the mean activities only, which means that these calculations take account of the dispersion which affects every average.
(c) Calculation of the confidence interval for α=0.05.
The pI50 s of the compounds 1 to 7 appearing in Table I above were calculated by application of the method as just described; they have been listed in Table II below: […]

[7] = system: rat embryo cultures (muscle fragment); assay: Culture in explants: mitotic index of rat embryo cultures; type: cell-based; conditions: for mitotic index: 4th day, control culture 2.5%; for number of mitoses at the metaphase level: vs control culture
Method: This concerns rat embryo cultures kept for at least 6 months (muscle fragment). The explants are placed in culture in plasma coagulum (cock plasma). The cultures are fed with nutrient medium (Hanx+embryonary extract+decomplemented calf foetus serum). 24 hours after placing in plasma coagulum, the product to be tested is added at different dilutions. The cultures are examined on the 4th day and the counting of the number of mitoses is effected in the growth zone of the explants. The percentage of each of the phases of the mitosis is determined for the whole (mitotic index).

[8] = system: Rat fibroblast cultures; assay: Action upon cultures of trypsinised fibroblasts; type: cell-based; conditions: read-out: percentage of inhibition in comparison with the control, heading: percentage of inhibition in comparison with the control, 10^-4 M, 48 and 72 hours
Method: Rat fibroblast cultures are concerned and the strains have been maintained for several years.
For single-layer cultivation in Roux flasks, Trypsinisation at 0.25% detaches the cells from the flask on the one hand and from one another on the other hand.
The cells are distributed in lamellated tubes at the rate of 250,000 cells per ml., where they are deposited.
The products to be tested are introduced at different dilutions, and left to act for 48 and 72 hours.
Next, the counting of the cells is effected (10 fields for 5 blades) and the results obtained are compared with control tumours which have not received the product to be tested.

[9] = system: fibro-sarcoma induced by methyl cholanthrene; assay: Development of a fibro-sarcoma induced by methyl cholanthrene in vivo in the rat; conditions: daily 50 mg./kg in two doses, over three months, vs untreated rats
Method: as §1
2. Inhibiting action upon the development of a fibro-sarcoma induced by methyl cholanthrene "in vivo" in the rat.

[10] = system: leukaemias, Hodgkin's disease; conditions: cited from earlier work
[11] = system: ADN; conditions: cited from earlier work
[12] = system: synthesis of nucleic acids; conditions: cited from earlier work
[13] = phenoxyacetic acid corresponding to the numbered guanyl hydrazone, root growth, read-out: Corresponding phenoxyacetic acid pI 50 (converted)
[14] = 50% inhibition of root growth, 24 hours, 27° C., darkness, read-out: pI 50 (guanyl hydrazones) (converted)
[15] = 72 h, 10^-4 molar, 72nd hour after sub-culture, read-out: percentage of diminution of the number of cells in comparison with the control
[16] = 72 h, 72nd hour after sub-culture, read-out: percentage of diminution of the number of cells in comparison with the control
[17] = platelet-rich plasma, human blood or rabbit's blood, Table V, read-out: PI50 (platelet aggregation) (converted)
[18] = concentration of 10^-4 mol, read-out: retardation of the cellular multiplication

Structure (SMILES)	IC50 [5, 17] [µM]	pI 50 [6]	IC50 [1, 14] [µM]	inhibition at 100 µM [4, 15] [%]	inhibition at 10 µM [4, 16] [%]	inhibition at 1 µM [4, 16] [%]	inhibiting activity (root growth, in words) [1]	other results
O=C(O)COc1ccccc1 [1 (corresponding phenoxyacetic acid), reference compound]								IC50 [1, 13]: 631 µM
O=C(O)COc1ccccc1Cl [2 (corresponding phenoxyacetic acid), reference compound]								IC50 [1, 13]: 112 µM
N=C(N)NN=Cc1ccc([N+](=O)[O-])o1 [5-nitrofurfuraldehyde guanyl hydrazone]								anti-tumoral activity [2]: a certain anti-tumoral activity in the mouse
Cc1ccccc1OCC(=O)O [8 (corresponding phenoxyacetic acid), reference compound]								IC50 [1, 13]: 11 µM
N=C(N)NN=CCOc1ccccc1Cl [Compound 2, o-chlorophenoxy acetaldehyde guanyl hydrazone]	603	4.94	162	15.8	13.2	7.89		
N=C(N)NN=CCOc1ccc(Cl)cc1 [Compound 4]	562	4.70	7.24	36.8	23.7	7.89	great inhibiting activity	inhibition at 1000 µM [3]: ~45%; pI 50 (guanyl hydrazones) ([1]; 50% inhibition of root growth, 24 hours, 27° C., darkness): 5.14±0.08; inhibition at 100 µM [4, 18]: > 30%; mitotic index [7]: 1.2%; number of mitoses at the metaphase level [7]: significant reduction of the number of mitoses at the metaphase level; inhibition at 100 µM [8]: ~77%
Cc1ccccc1OCC=NNC(=N)N [Compound 8]	525		38.9	10.7	7.89	0	great inhibiting activity	
Cc1ccc(OCC=NNC(=N)N)cc1 [Compound 10, p-methyl phenoxy acetaldehyde guanyl hydrazone]	813		58.9	25	23.7	0		
CC(C)c1ccccc1OCC=NNC(=N)N [Compound 11]			39.8	78.6	42.1	18.4	great inhibiting activity	inhibition at 100 µM [4, 18]: > 30%; mitotic index [7]: 1.9%; number of mitoses at the metaphase level [7]: significant reduction of the number of mitoses at the metaphase level; development of the tumours (weight estimations) [9]: clearly retarded; inhibition at 100 µM [8]: ~100%
N=C(N)NN=CCOc1ccc(Br)cc1 [Compound 12]	562		2.88	57.1	40.4	0	great inhibiting activity	inhibition at 100 µM [4, 18]: > 30%; development of the tumours (weight estimations) [9]: clearly retarded
N=C(N)NN=CCOc1ccc(F)cc1 [Compound 13]	977							
CC(=O)Oc1ccccc1C(=O)O [Lysine acetylsalicylate, reference compound]								IC50 ([5]; Platelet, read-out: PI50 (platelet aggregation)): 51300 µM
CC(C=NNC(=N)N)=NNC(=N)N [methyl-glyoxal-bis (guanyl hydrazone)]								action in Hodgkin's disease ([10]; Hodgkin's disease): sometimes but rarely efficacious; action in acute myeloblastic and promyelocytary leukaemias ([10]; acute myeloblastic and promyelocytary leukaemias): action has been verified; action in acute transformations of chronic myeloid leukaemia and other leukaemias ([10]; acute transformations of chronic myeloid leukaemia and other leukaemias): less efficacious; side effects on administration ([10]; in vivo): various cutaneous, digestive and metabolic troubles, in particular hypoglycaemia; complex formation with ADN [11]: forms complexes with ADN; inhibition of nucleic acid synthesis [12]: inhibits the synthesis of nucleic acids

Continued, in another order:

IC50 [5, 17] [µM]	pI 50 [6]	Structure (SMILES)	IC50 [1, 14] [µM]	inhibition at 100 µM [4, 15] [%]	inhibition at 10 µM [4, 16] [%]	inhibition at 1 µM [4, 16] [%]	inhibiting activity (root growth, in words) [1]	other results
1200	4.90	N=C(N)NN=CCOc1ccccc1 [Compound 1]	692	15.8	7.89	5.26		inhibition at 1000 µM [3]: ~25%
490	4.70	N=C(N)NN=CCOc1cccc(Cl)c1 [Compound 3]	33.9	31.6	26.3	0	great inhibiting activity	inhibition at 100 µM [4, 18]: > 30%
1100	4.94	COc1ccccc1OCC=NNC(=N)N [Compound 5, o-methoxy phenoxy acetaldehyde guanyl hydrazone]	224	5.26	2.63	0		
	5.16	COc1cccc(OCC=NNC(=N)N)c1 [Compound 6]	191	18.4	12.6	0		
1380	4.50	COc1ccc(OCC=NNC(=N)N)cc1 [Compound 7]	102	15.8	15.3	0		
692		Cc1cccc(OCC=NNC(=N)N)c1 [Compound 9]	26.3	32.1	13.2	10.5	great inhibiting activity	inhibition at 100 µM [4, 18]: > 30%
